Assay results published in patent US9539321B2, “HMGB1-derived peptides enhance immune response to antigens” (The Regents of the University of California, priority 2010, dated 2017).
“Also recorded” adds a separate entry of the source. Like-named read-outs stand apart in the source and are kept apart here. Where a SMILES comes first, the peptide text is derived from it. The star is where a group is joined. Biotin = O=C1N[C@H]2[C@H](CS[C@H]2CCCCC(=O)*)N1

Key:
[1] = Adverse effects of tested doses in mice; type: in vivo
[2] = test system: Immature human DCs; assay: Peptide binding/uptake by flow cytometry; settings: for uptake by DCs: biotinylated peptide 200 μg ml^−1, 30 minutes, 37° C.
[3] = test system: antigen-specific IFN-γ secreting T cells; assay: IFN-γ ELISPOT of splenocytes from immunized mice; type: in vivo, C57BL/6 mice; settings: for number of antigen-specific IFNγ-secreting T cells compared to PBS: equimolar peptide with SIINFEKL peptide
Experimental: Female C57BL/6 mice 8-12 weeks of age were used for most experiments. All mice were purchased from Charles River Laboratories (Boston, Mass., USA) and housed at the Moores UCSD Cancer Center animal facility. All animal studies were approved by the Institutional Animal Care and Use Committee of UCSD and were perfolined in accordance with the institutional guidelines. For most experiments, mice were immunized s.c. with 50 μg of SIINFEKL (OVA-I) peptide (SEQ ID NO: 45) and 50 μg of ISQAVHAAHAEINEAGR (OVA-II) peptide (SEQ ID NO: 46). The OVA peptide was co-administered with either Hp91 (30 to 500 μg) or PBS (negative control). For some experiments, a protein vaccine group was included, wherein 500 μg of Hp91 was co-administered with 100 μg of LPS-free OVA protein. As a positive control, mice were immunized s.c. with OVA peptide(s) or protein in Incomplete Freund's Adjuvant “IFA” (Sigma-Aldrich, St. Louis, Mo., USA). If not otherwise indicated, mice were immunized and boosted two weeks later and spleens and blood were collected 10-14 days after the final immunization.
Single cell suspensions of splenocytes were prepared by mechanical disruption and separation through a 70 μm nylon cell strainer (BD Biosciences, Franklin Lakes, N.J., USA). Red blood cells were lysed using ammonium chloride buffer (Roche Diagnostics, Indianapolis, Ind., USA) and the splenocytes were subsequently resuspended in complete medium (RPMI 1640 with 10% FBS, L-glutamine, penicillin, streptomycin, and HEPES). in some experiments, CD4+ and CD8+ cells were depleted from bulk splenocyte populations using anti-CD4 or anti-CD8α conjugated microbeads (Miltenyi-Biotec, Auburn, Calif., USA) according to the manufacturer's instructions.
Freshly isolated splenocytes were plated in duplicate to wells of a nitrocellulose bottom enzyme-linked immunospot (ELISPOT) plate (Millipore, Millerica, Mass., USA) that had been previously coated overnight with 5 μg ml^−1 monoclonal anti-mouse IFN-γ antibody (Mabtech, Stockholm, Sweden). Splenocytes were cultured overnight at 37° C. with 2.5 μg ml^−1 SIINFEKL (OVA-I) peptide, 2.5 μg ml^−1 ISQAVHAAHAEINEAGR (OVA-II) peptide, or left unstimulated (medium only). After 18 h, culture supernatants were collected for cytokine analysis and ELISPOT plates were developed using 1 μg ml^−1 biotinylated anti-mouse IFN-γ antibody (Mabtech), Streptavidin-HRP (Mabtech), and TMB Substrate (Mabtech). The plate was scanned and the spots were counted using an automated ELISpot Reader System (CTL ImmunoSpot, Shaker Heights, Ohio, USA).
Mice were immunized s.c. with 50 μg of SIINFEKL peptide. The SIINFEKL peptide was co-administered with either PBS, Hp91 (250 μg), or scrambled Hp91 (250 μg). Peptides were dissolved in PBS for all immunizations, Mice were boosted two weeks later and spleens and blood were collected one week after the final immunization. Single cell suspensions of splenocytes were prepared by mechanical disruption and separation through a […] nylon cell strainer (BD Biosciences). Red blood cells were lysed using ammonium chloride buffer (Roche Diagnostics, Indianapolis, Ind.) and the splenocytes were subsequently resuspended in RPMI 1640 medium (Invitrogen) supplemented with 10 mmol HEPES (GIBCO-BRL), penicillin (100 U/mL)—streptomycin (100 μg/mL)—glutamine (2 mM) (GIBCO-BRI.), arid 5% (vol/vol) fetal calf serum (Omega).
Freshly isolated splenocytes were plated in duplicate to wells of a nifrocellulose bottom enzymelinked immunospot (ELISPOT) plate (Millipore, NAillerica, Mass., USA) that had been previously coated overnight with 5 μg ml^−1 monoclonal anti-mouse IFN-γ antibody (Mabtech, Stockholm, Sweden). Splenocytes were cultured overnight at 37° C., with 2.5 μg ml^−1 SIINFEKL peptide, 5 μg ml^−1 concanavalin A positive control (Sigma), or left unstimulated (medium only). […]

[4] = test system: Immature human DCs; assay: Stimulation of DCs, IL-6 by ELISA; type: cell-based; settings: for effect of inhibitor pre-treatment on Hp91-induced IL-6 secretion: SB203580 5 or 20 μM, PD98059 20 μM, TPCK 20 μM, 48 h
[5] = test system: J774 macrophages; type: cell-based, mouse
[6] = Circular dichroism; type: physicochemical; settings: 75%/25% TFE/H2O, 200 μg ml^−1
Experimental: CD spectra of peptides, dissolved in 75%/25% Trifluoroethanol (TFE, Sigma)/H2O (vol/vol), were collected on an AVIV model 202 Circular Dichroism Spectrometer, under nitrogen, using a 1 mm pathlength quartz cuvette. These spectra were corrected by subtraction of a “solvent-only” spectrum and smoothed. The spectra are shown in mean residue ellipticity (θmrw). Peptides were analyzed at 200 μg ml^−1.

[7] = test system: splenocytes; assay: IL-2 / IL-4 secretion of splenocytes from immunized mice by ELISA; type: in vivo, C57BL/6 mice
Experimental: Splenocytes were cultured overnight with 2.5 μg ml^−1 OVA-I peptide, 2.5 μg ml^−1 OVA-II peptide, 5 μg ml^−1 concanavalin A positive control (Sigma), or left unstimulated (media only). After 18 h, cell culture supernatants were collected and analyzed for the presence of IL-2 and IL-4 by ELISA (eBioscience).
(§1) To measure cytokine release from immunized mice, splenocytes were cultured overnight with 2.5 μg ml^−1 SINFEKI: peptide, 5 μg ml^−1 concanavalin A positive control (Sigma), or left unstimulated (medium only). After 18 h, cell culture supernatants were collected and analyzed for the presence of IL-2 by ELISA. (eBioscience).
as §1, with “SIINFEKL” for “SINFEKI:”, “(media” for “(medium”, “ELISA” for “ELISA.”

[8] = test system: B16 melanoma cells; assay: Prophylactic B16 tumor challenge
[9] = test system: J774 macrophages; assay: Uptake of Cp488-labeled Hp91 by macrophages, flow cytometry; type: cell-based, mouse; settings: Dynasore 80 μM, Cp488-labeled Hp91 200 μg ml^−1
[10] = test system: p-IRF3 in RAW 264.7 macrophages; assay: Immunoblotting for phospho-IRF3; type: cell-based, mouse; settings: Dynasore 80 μM pre-treatment
[11] = test system: Immature human DCs; settings: cited from earlier work
[12] = test system: Immature human DCs; assay: Confocal microscopy of peptide binding/uptake; type: cell-based; settings: even after 30 minutes at 37° C.
Experimental: Immature human DCs (10^5) were pre-cooled on ice and subsequently incubated for 30 minutes on ice in culture medium with biotinylated Hp91 or Hp121 to allow peptide binding. Cells were washed and then incubated for the indicated time at 37° C. Cells were cytospun (Shandon Cytospin 2 centrintge) onto glass slides, fixed, pernieabiiized with acetone, and stained with Streptavidin-Alexa 488 (Invitrogen) to visualize biotinylated peptides and Hoechst 33258 DNA stain (Invitrogen). Cells were imaged on a Zeiss LSM confocal microscope.

[13] = test system: mouse BM-DCs; assay: Stimulation of mouse BM-DCs, IL-6 by ELISA; type: cell-based
[14] = biotinylated, 90 μM, 30 minutes 37° C.

Molecule: CC(C)C[C@H](NC(=O)[C@H](Cc1ccccc1)NC(=O)[C@H](Cc1ccccc1)NC(=O)[C@H](C)NC(=O)[C@H](CO)NC(=O)[C@@H]1CCCN1C(=O)[C@@H]1CCCN1C(=O)[C@H](CCCNC(=N)N)NC(=O)[C@H](CCCCN)NC(=O)[C@@H]1CCCN1C(=O)[C@H](C)NC(=O)[C@H](CC(N)=O)NC(=O)[C@@H]1CCCN1C(=O)[C@H](CC(=O)O)NC(=O)CCCC[C@@H]1SC[C@@H]2NC(=O)N[C@@H]21)C(=O)N[C@@H](Cc1ccccc1)C(=O)N[C@@H](CS)C(=O)N[C@@H](CO)C(=O)N[C@@H](CCC(=O)O)C(=O)O [Hp91, DPNAPKRPPSAFFLFCSE] (Biotin-DPNAPKRPPSAFFLFCSE-OH)
- adverse effects [1]: no adverse effects

Molecule: ASLAPPFPNCFDPKSREF (scrambled Hp91 peptide)
- uptake by DCs [2]: much lesser extent than Hp91; also recorded: not taken up
- antigen-specific immune response (IFN-γ ELISPOT, IL-2) ([3]; 250 μg with SIINFEKL peptide, compared to Hp91): failed to mount an antigen-specific immune response

Molecule: N-tosyl-L-phenylalanine chloromethyl ketone [TPCK]
- effect of inhibitor pre-treatment on Hp91-induced IL-6 secretion [4]: significantly reduced
- effect of inhibitor pre-treatment on Hp91-induced IL-6 secretion [5]: significantly lowered

Molecule: APKRPPSA (UC411 peptide)
- endocytosis by DCs [2, 14]: failed to be endocytosed

Molecule: C[C@@H]1[C@H](O)[C@@H](C)/C=C/C=C/CC/C=C/C=C/C=C/C=C/C(O[C@H]2O[C@H](C)[C@@H](O)[C@H](N)[C@@H]2O)CC2O[C@](O)(CC(O)C(O)CCC(O)CC(O)CC(O)CC(=O)O[C@H]1C)CC(O)C2C(=O)O (stereo partly drawn) [nystatin]
- effect of inhibitor pre-treatment on uptake of biotinylated Hp91 [2]: failed to significantly reduce

Molecule: N=C(N)NC(=O)c1nc(Cl)c(N)nc1N [amiloride]
- effect of inhibitor pre-treatment on uptake of biotinylated Hp91 ([2]; 30 minutes pre-treatment, PAO 2 μM, CP 100 μM, NY 20 μM, AM 2 mM): failed to significantly reduce

Molecule: RPPSAFFL (UC714 peptide)
- endocytosis by DCs [2, 14]: failed to be endocytosed
- IFNγ-secreting T cells relative to full-length Hp91 peptide ([3]; equimolar doses): 50%
- number of antigen-specific IFNγ-secreting T cells compared to PBS [3]: moderate increases

Molecule: DPNAPKRP (UC18 peptide)
- endocytosis by DCs [2, 14]: failed to be endocytosed
- secondary structure from CD spectrum [6]: polyproline II helix

Molecule: CN(C)CCCN1c2ccccc2Sc2ccc(Cl)cc21 [chlorpromazine]
- effect of inhibitor pre-treatment on uptake of biotinylated Hp91 [2]: significantly reduced
- effect of inhibitor pre-treatment on Hp91-induced IL-6 secretion [5]: no reduction

Molecule: SAFFLFCSE [UC1018]
- uptake by DCs compared to Hp91 controls [2, 14]: over 3 fold
- secondary structure from CD spectrum [6]: alpha helix
- IL-2 level relative to Hp91 controls ([7]; equimolar doses): 4 fold
- IL-2 ([7]; immunized with SIINFEKL peptide and peptide adjuvant): significantly enhanced
- adjuvant strength in vivo relative to Hp91, by IFN-γ ELISPOT and IL-2 cytokine release ([3]; discussion statement): 3 fold
- IFNγ ELISPOT immune response relative to Hp91 positive control ([3]; equimolar doses): 4 fold
- number of antigen-specific IFNγ-secreting T cells compared to PBS [3]: significant increase
- tumor formation and tumor growth vs PBS group ([8]; 142 μg with apoptotic B16 cells, significant as early as 11 days post challenge): delay in tumor formation and slowing of tumor growth
- mice tumor-free and alive ([8]; at 75 days post tumor challenge): 60%

Molecule: O=C(N/N=C/c1ccc(O)c(O)c1)c1cc2ccccc2cc1O [Dynasore]
- effect on uptake of Hp91 [9]: significantly inhibited uptake
- effect of inhibitor pre-treatment on Hp91-induced IL-6 secretion [5]: significantly reduced
- effect on Hp91-induced phosphorylation of IRF3 [10]: reduced the phosphorylation of IRF3

Molecule: [N-]=[N+]=[N-] [Sodium azide, sodium azide]
- inhibition at 10000 µM ([2]; Homo sapiens, read-out: inhibition of Hp91 uptake): ~40%

Molecule: RPPSAFFLFCSE (UC718 peptide)
- IL-6 / cytokine secretion from DCs ([4]; short peptides, 48 hours): induces cytokine release from DCs

Molecule: COc1cccc(-c2cc(=O)c3ccccc3o2)c1N [PD98059]
- effect of inhibitor pre-treatment on Hp91-induced IL-6 secretion [4]: failed to significantly reduce

Molecule: C/C1=C/C(=O)O[C@@H]2C[C@@H](CC[C@H](C)/C=C\CC1)O[C@@](O)([C@@H]1CSC(=O)N1)C2 [Latrunculin B]
- effect of inhibitor pre-treatment on uptake of biotinylated Hp91 [2]: did not significantly reduce
- uptake of Dextran FITC [2]: completely abrogating

Molecule: C[S+]([O-])c1ccc(-c2nc(-c3ccncc3)c(-c3ccc(F)cc3)[nH]2)cc1 (stereo not drawn) [SB203580]
- effect of inhibitor pre-treatment on Hp91-induced IL-6 secretion [4]: significantly reduced
- effect of inhibitor pre-treatment on Hp91-induced IL-6 secretion [5]: significantly lowered

Molecule: SIGDVAKKLGEMWNNTAA (Hp121 peptide)
- activation of human DCs in vitro [11]: does not cause activation
- detection within DCs [12]: not detected
- uptake by DCs [2]: not taken up
- activation of mouse BM-DCs in vitro [13]: does not cause activation
- number of INF-γ secreting cells ([3]; s.c. with OVA-I peptide, 250 μg peptide, freshly isolated and expanded splenocytes, vs PBS/OVA-I): No significant increase
